PubChem BioAssay (NCI)
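The concentration for 50% growth inhibition is given as GI50. The concentration for full growth arrest is given as TGI.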

Legend:
Assay in all cases: growth of human tumour cells (NCI), 384-well format
786-0 renal = system: 786-0 renal
A498 renal = system: A498 renal
A549 NSCLC = system: A549 NSCLC
ACHN renal = system: ACHN renal
BT-549 breast = system: BT-549 breast
CAKI-1 renal = system: CAKI-1 renal
CCRF-CEM leukemia = system: CCRF-CEM leukemia
COLO 205 colon = system: COLO 205 colon
DU-145 prostate = system: DU-145 prostate
EKVX NSCLC = system: EKVX NSCLC
HCC-2998 colon = system: HCC-2998 colon
HCT-15 colon = system: HCT-15 colon
HL-60(TB) leukemia = system: HL-60(TB) leukemia
HOP-62 NSCLC = system: HOP-62 NSCLC
HOP-92 NSCLC = system: HOP-92 NSCLC
HS 578T breast = system: HS 578T breast
HT29 colon = system: HT29 colon
IGROV1 ovarian = system: IGROV1 ovarian
K-562 leukemia = system: K-562 leukemia
KM12 colon = system: KM12 colon
LOX IMVI melanoma = system: LOX IMVI melanoma
M14 melanoma = system: M14 melanoma
MALME-3M melanoma = system: MALME-3M melanoma
MCF7 breast = system: MCF7 breast
MDA-MB-231 breast = system: MDA-MB-231 breast
MDA-MB-435 melanoma = system: MDA-MB-435 melanoma
MDA-MB-468 breast = system: MDA-MB-468 breast
MOLT-4 leukemia = system: MOLT-4 leukemia
NCI-H226 lung = system: NCI-H226 lung
NCI-H23 lung = system: NCI-H23 lung
NCI-H322M lung = system: NCI-H322M lung
NCI-H460 NSCLC = system: NCI-H460 NSCLC
NCI-H522 lung = system: NCI-H522 lung
NCI/ADR-RES ovarian = system: NCI/ADR-RES ovarian
OVCAR-3 ovarian = system: OVCAR-3 ovarian
OVCAR-4 ovarian = system: OVCAR-4 ovarian
OVCAR-5 ovarian = system: OVCAR-5 ovarian
OVCAR-8 ovarian = system: OVCAR-8 ovarian
PC-3 prostate = system: PC-3 prostate
RPMI-8226 leukemia = system: RPMI-8226 leukemia
RXF 393 renal = system: RXF 393 renal
SF-268 CNS = system: SF-268 CNS
SF-295 CNS = system: SF-295 CNS
SF-539 CNS = system: SF-539 CNS
SK-MEL-28 melanoma = system: SK-MEL-28 melanoma
SK-MEL-5 melanoma = system: SK-MEL-5 melanoma
SK-OV-3 ovarian = system: SK-OV-3 ovarian
SN12C renal = system: SN12C renal
SNB-19 CNS = system: SNB-19 CNS
SNB-75 CNS = system: SNB-75 CNS
SR leukemia = system: SR leukemia
SW-620 colon = system: SW-620 colon
T-47D breast = system: T-47D breast
TK-10 renal = system: TK-10 renal
UACC-257 melanoma = system: UACC-257 melanoma
UACC-62 melanoma = system: UACC-62 melanoma
UO-31 renal = system: UO-31 renal

## N#Cc1cc(F)cc(Oc2ccc(S(=O)(=O)C(F)F)c3c2CC(F)(F)[C@H]3O)c1
786-0 renal
  GI50: 31.6 µM
  TGI: > 100 µM
A498 renal
  GI50: 19.8 µM
  TGI: 44 µM
A549 NSCLC
  GI50: 26.9 µM
  TGI: 86.3 µM
ACHN renal
  GI50: 33.2 µM
  TGI: > 100 µM
BT-549 breast
  GI50: 21.1 µM
  TGI: 47.2 µM
CAKI-1 renal
  GI50: 38.8 µM
  TGI: > 100 µM
CCRF-CEM leukemia
  GI50: 11.6 µM
  TGI: 25.8 µM
COLO 205 colon
  GI50: 38.7 µM
  TGI: > 100 µM
DU-145 prostate
  GI50: 26.2 µM
  TGI: 90.6 µM
EKVX NSCLC
  GI50: 27.3 µM
  TGI: 97.3 µM
HCC-2998 colon
  GI50: 41.4 µM
  TGI: > 100 µM
HCT-15 colon
  GI50: 27.8 µM
  TGI: > 100 µM
HL-60(TB) leukemia
  GI50: 18.4 µM
  TGI: 33 µM
HOP-62 NSCLC
  GI50: 30 µM
  TGI: > 100 µM
HOP-92 NSCLC
  GI50: 16.3 µM
  TGI: 52 µM
HS 578T breast
  GI50: 20 µM
  TGI: 69.8 µM
HT29 colon
  GI50: 43.9 µM
  TGI: > 100 µM
IGROV1 ovarian
  GI50: 41.6 µM
  TGI: > 100 µM
K-562 leukemia
  GI50: 18.3 µM
  TGI: > 100 µM
KM12 colon
  GI50: 34.5 µM
  TGI: > 100 µM
LOX IMVI melanoma
  GI50: 20 µM
  TGI: 43.1 µM
M14 melanoma
  GI50: 33.7 µM
  TGI: > 100 µM
MALME-3M melanoma
  GI50: 28.8 µM
  TGI: 93.6 µM
MCF7 breast
  GI50: 19.6 µM
  TGI: 55.2 µM
MDA-MB-231 breast
  GI50: 25.4 µM
  TGI: > 100 µM
MDA-MB-435 melanoma
  GI50: 48.4 µM
  TGI: > 100 µM
MDA-MB-468 breast
  GI50: 8.94 µM
  TGI: 26 µM
MOLT-4 leukemia
  GI50: 13.9 µM
  TGI: 27.1 µM
NCI-H226 lung
  GI50: 22.7 µM
  TGI: 71.8 µM
NCI-H23 lung
  GI50: 14.2 µM
  TGI: 48.5 µM
NCI-H322M lung
  GI50: 39.4 µM
  TGI: > 100 µM
NCI-H460 NSCLC
  GI50: 18.1 µM
  TGI: 33.9 µM
NCI-H522 lung
  GI50: 19.8 µM
  TGI: 61.2 µM
NCI/ADR-RES ovarian
  GI50: 16.1 µM
  TGI: 52 µM
OVCAR-3 ovarian
  GI50: 25.1 µM
  TGI: 68.5 µM
OVCAR-4 ovarian
  GI50: 14.8 µM
  TGI: 53.2 µM
OVCAR-5 ovarian
  GI50: 56.4 µM
  TGI: > 100 µM
OVCAR-8 ovarian
  GI50: 28.5 µM
  TGI: > 100 µM
PC-3 prostate
  GI50: 29.9 µM
  TGI: > 100 µM
RPMI-8226 leukemia
  GI50: 11.8 µM
  TGI: 28.9 µM
RXF 393 renal
  GI50: 21.3 µM
  TGI: 73.8 µM
SF-268 CNS
  GI50: 48.6 µM
  TGI: > 100 µM
SF-295 CNS
  GI50: 30.2 µM
  TGI: > 100 µM
SF-539 CNS
  GI50: 33.6 µM
  TGI: > 100 µM
SK-MEL-28 melanoma
  GI50: 53.3 µM
  TGI: > 100 µM
SK-MEL-5 melanoma
  GI50: 15.1 µM
  TGI: 29.4 µM
SK-OV-3 ovarian
  GI50: 26.2 µM
  TGI: > 100 µM
SN12C renal
  GI50: 32.7 µM
  TGI: > 100 µM
SNB-19 CNS
  GI50: 48.5 µM
  TGI: > 100 µM
SNB-75 CNS
  GI50: 34.4 µM
  TGI: > 100 µM
SR leukemia
  GI50: 15.7 µM
  TGI: 30.5 µM
SW-620 colon
  GI50: 63.5 µM
  TGI: > 100 µM
T-47D breast
  GI50: 14.9 µM
  TGI: 67.4 µM
TK-10 renal
  GI50: 38.4 µM
  TGI: > 100 µM
UACC-257 melanoma
  GI50: 19.2 µM
  TGI: 48.7 µM
UACC-62 melanoma
  GI50: 34.9 µM
  TGI: > 100 µM
UO-31 renal
  GI50: 36.4 µM
  TGI: > 100 µM
